Assay results as given in patent publication US20110098296A1, “Thiazole And Oxazole Kinase Inhibitors” (priority 2007, published 2011).
pIC50: −log10 of the molar value.

What was measured:
Type in all cases: cell-based
[1] = test system: SK-MEL-3 tumor cells; assay: Method C: Cell Growth Inhibition Assay (CellTiter-Glo), SK-MEL-3; conditions: Homo sapiens, SK-MEL3, 72 h, 3 days, 4-parameter fit
In short: (§1)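 Cells plated at 500 cells/well, dosed next day with 10-point 1:3 dilution series (0.2% final DMSO) and grown 3 days at 37 °C, 5% CO2. CellTiter-Glo luminescence (total ATP) served as cell-number surrogate; inhibition relative to DMSO controls, IC50 interpolated by 4-parameter fit.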

[2] = test system: Colo205 tumor cells; assay: Method C: Cell Growth Inhibition Assay (CellTiter-Glo), Colo205; conditions: Homo sapiens, COLO 205, 72 h, 3 days, 4-parameter fit
In short: as §1

[3] = test system: Colo205 tumor cells; assay: Method B: CellTiter-Glo Growth Inhibition Assay, Colo205; conditions: Homo sapiens, COLO 205, 72 h, 3 days
Procedure: Human breast tumor cells (BT474) were cultured in RPMI, (Invitrogen, 22400) containing 10% fetal bovine serum (FBS). Human head and neck tumor cells (HN5) were cultured in low glucose DMEM (Invitrogen, 12320) containing 10% FBS. Human colon tumor cells (Colo205) were cultured in DMEM (Invitrogen, 10564) containing 10% FBS. Human melanoma cancer cells (SK-MEL-28) were incubated in DMEM (Invitrogen). All cell lines were maintained at 37° C. in a humidified 5% CO2, 95% air incubator. Cells were harvested using trypsin/EDTA, counted using a haemocytometer, and plated in 30 μL of the appropriate media described above, at the following densities, in a half-area, black-walled, 96-well tissue culture plate (Corning 3882): BT474 3,000 cells/well, HN5 500 cells/well, Colo205 3,000 cells/well, and SK-MEL-28 500 cells/well). The next day, compounds were diluted in DMEM containing […] gentamicin, from 10 mM stock solutions in DMSO. 30 μL/well of these dilutions were added to the 30 μL/well of media currently on the cell plates. Medium containing 0.6% DMSO was added to control wells. The final concentration of DMSO in all wells was 0.3%. Cells were incubated at 37° C., 5% CO2 for 3 days. Cell biomass was estimated using CellTiter-Glo® reagent (Promega G7571). Briefly, plates were removed from the incubator and allowed to equilibrate to rt for 30 minutes. 25-60 μL of CellTiter-Glo® reagent were added to each well of the treated cells and plates were shaken on an orbital plate shaker for 2 mins. Plates were incubated without shaking for 30 more mins and read in a luminometer with an integration time of 0.5 seconds per well. Percent inhibition of cell growth was calculated relative to vehicle-treated control wells. Concentration of compound that inhibits 50% of vehicle control cell growth (IC50) was interpolated using nonlinear regression (Levenberg-Marquardt) and the equation, y=V max*(1−(x/(K+x)))+Y2, where “K” was equal to the IC50.

| Structure (SMILES) | pIC50 [1] | pIC50 [2] | pIC50 [3] |
| --- | --- | --- | --- |
| CCc1nc(-c2cccc(NC(=O)c3c(F)cccc3F)c2)c(-c2ccnc(Nc3cccc(CN4CCCC4)c3)n2)s1 [Example 115, N-{3-[2-Ethyl-5-(2-{[3-(1-pyrrolidinylmethyl)phenyl]amino}-4-pyrimidinyl)-1,3-thiazol-4-yl]phenyl}-2,6-difluorobenzamide] | 6.00 to 7.00 | 6.00 to 7.00 |  |
| Nc1nc(-c2cccc(C(=O)Nc3c(F)cccc3F)c2)c(-c2ccnc(Nc3cccc(CN4CCCC4)c3)n2)s1 [Example 77, 3-[2-Amino-5-(2-{[3-(1-pyrrolidinylmethyl)phenyl]amino}-4-pyrimidinyl)-1,3-thiazol-4-yl]-N-(2,6-difluorophenyl)benzamide] | > 7.00 |  | > 7.00 |
| CCNc1nc(-c2cccc(NC(=O)C3CC3)c2)c(-c2ccnc(Nc3ccc(OCCN4CCCC4)c(Cl)c3)n2)s1 [Example 63, N-{3-[5-{2-[(3-Chloro-4-{[2-(1-pyrrolidinyl)ethyl]oxy}phenyl)amino]-4-pyrimidinyl}-2-(ethylamino)-1,3-thiazol-4-yl]phenyl}cyclopropanecarboxamide] | 6.00 to 7.00 |  | 6.00 to 7.00 |
| Cc1nc(-c2cccc(NC(=O)c3c(F)cccc3F)c2)c(-c2ccnc(Nc3ccc(OC4CCN(C(=O)OCc5ccccc5)CC4)c(F)c3)n2)s1 [Example 106] |  | < 6.00 |  |
| Cc1nc(-c2cccc(NC(=O)c3c(F)cccc3F)c2)c(-c2ccnc(Nc3ccc(OCCN(C)C)c(Cl)c3)n2)s1 [Example 103, N-[3-(5-{2-[(3-Chloro-4-{[2-(dimethylamino)ethyl]oxy}phenyl)amino]-4-pyrimidinyl}-2-methyl-1,3-thiazol-4-yl)phenyl]-2,6-difluorobenzamide] |  |  | < 6.00 |
| Cc1cc(-c2sc(N)nc2-c2cccc(NC(=O)c3c(F)cccc3F)c2)nc(Nc2cccc(F)c2)n1 [Example 48, N-[3-(2-Amino-5-{2-[(3-fluorophenyl)amino]-6-methyl-4-pyrimidinyl}-1,3-thiazol-4-yl)phenyl]-2,6-difluorobenzamide] |  | < 6.00 |  |
| Cc1nc(-c2cccc(NC(=O)c3cc(F)ccc3F)c2)c(-c2ccnc(Nc3ccc(OCCN(C)C)c(Cl)c3)n2)o1 [Example 142] |  |  | < 6.00 |
| COc1ccc(Nc2nccc(-c3sc(N)nc3-c3cccc(NC(=O)c4c(F)cccc4F)c3)n2)cc1N1CCNCC1 [Example 18, N-[3-(2-Amino-5-{2-[(4-methoxy-3-piperaziN-1-ylphenyl)amino]pyrimidiN-4-yl}-1,3-thiazol-4-yl)phenyl]-2,6-difluorobenzamide] |  | < 6.00 |  |
